Experimental data taken from patent publication US20140364331A1, “RECURRENT GENE FUSIONS IN PROSTATE CANCER” (THE REGENTS OF THE UNIVERSITY OF MICHIGAN, priority 2009, published 2014).

Test system: UBE2L3-KRAS fusion protein
Experiment: Western blotting of UBE2L3-KRAS fusion protein in cells treated with bortezomib
Format: cell-based, human
Description: The prostate cancer cell lines DU145 were transfected with siRNA duplex (Dharmacon, Lafayette, Colo., USA) against UBE2L3 (5′-CCACCGAAGATCACATTTA-3′; SEQ ID NO:1), KRAS (5′-GAAGTTATGGAATTCCTTT-3′; SEQ ID NO:2) or the fusion junction (5′-CCGACCAAGGCCTGCTGAA-3′; SEQ ID NO:3) by oligofectamine (Invitrogen). DU145 transfected with non-targeting siRNA and RWPE cells was used as negative control. Post 48 hours transfection, cells were homogenized in NP40 lysis buffer (50 mM Tris-HCl, 1% NP40, pH 7.4, Sigma, St. Louis, Mo.), and complete proteinase inhibitor mixture (Roche, Indianapolis, Ind.). Ten micrograms of each protein extract were boiled in sample buffer, separated by SDS-PAGE, and transferred onto Polyvinylidene Difluoride membrane (GE Healthcare, Piscataway, N.J.). The membrane was incubated for one hour in blocking buffer [Tris-buffered saline, 0.1% Tween (TBS-T), 5% nonfat dry milk] and incubated overnight at 4° C. with the following antibodies: anti-RAS mouse monoclonal (1:1000 in blocking buffer, Millipore Cat #: 05-516), anti-KRAS rabbit polyclonal (1:1000, Proteintech Group Inc., Cat #: 12063-1-AP) and anti-beta Actin mouse monoclonal (1:5000, Sigma Cat #: A5441) antibodies. Following three washes with TBS-T, the blot was incubated with horseradish peroxidase-conjugated secondary antibody and the signals visualized by enhanced chemiluminescence system as described by the manufacturer (GE Healthcare). To test fusion protein expression in multiple prostate derived cell lines, lysates from DU145, PrEC, RWPE, 22RV1, VCaP, PC3 either untreated or treated with 500 nM bortezomib for 12 hours were used. Bortezomib treated HEK cells over-expressing UBE2L3-KRAS fusion protein was used as a positive control. […] For ERK activation analysis NIH 3T3 cells were starved for 12 hours before immunoblot analysis using phospho erk1/2 antibody. All antibodies for the MAPK signaling proteins were purchased from Cell Signaling Technologies.

**Q.** For `CC(C)C[C@H](NC(=O)[C@H](Cc1ccccc1)NC(=O)c1cnccn1)B(O)O` [bortezomib], which “levels of UBE2L3-KRAS protein expression (Western blot)” value (DU145 cells, 500 nM bortezomib for 12 hours) is on record?
**A.** Its value is “enhanced the levels of UBE2L3-KRAS protein expression”.

**Q.** What about the “expression of the UBE2L3-KRAS fusion protein (Western blot)” value (HEK293 cells over-expressing UBE2L3-KRAS construct, 500 nM bortezomib for 12 hours) of the same compound?
**A.** The value was “expression of the fusion protein was clearly apparent”.

**Q.** What about the “expression of the UBE2L3-KRAS fusion protein (Western blot)” value (RWPE prostate epithelial cells overexpressing UBE2L3-KRAS) of the same compound?
**A.** The value was “proteosomal inhibition with bortezomib was required”.
